Laboratory results from publication PMC5108032, “Discovery of a Quinoline-4-carboxamide Derivative with a Novel Mechanism of Action, Multistage Antimalarial Activity, and Potent in Vivo Efficacy” (Journal of Medicinal Chemistry, 2016).

Legend:
Format in all cases: in vitro ADME
[1] = Plasma protein binding (equilibrium dialysis); settings: female, NMRI; mouse plasma protein binding; read-out: PPB (converted)
Method: (§1) by the addition of excess NADPH (8 mg/mL 50 mM potassium phosphate buffer, pH 7.4).
(§2) Immediately, at time zero, then at 3, 6, 9, 15 and 30 min an aliquot (50 μL) of the incubation mixture was removed and mixed with acetonitrile (100 μL) to stop the reaction. Internal standard was added to all samples, the samples centrifuged to sediment precipitated protein and the plates then sealed prior to UPLC-MS/MS analysis using a Quattro Premier XE (Waters Corporation, USA).
XLfit (IDBS, UK) was used to calculate the exponential decay and consequently the rate constant (k) from the ratio of peak area of test compound to internal standard at each timepoint. The rate of intrinsic clearance (CLi) of each test compound was then calculated using the following calculation:
CLi (mL/min/g liver) = k x V x Microsomal protein yield
Where V (mL/mg protein) is the incubation volume/mg protein added and microsomal protein yield is taken as 52.5 mg protein per g liver. Verapamil (0.5 µM) was used as a positive control to confirm acceptable assay performance. Experiments were performed using a single time-course experiment.
Plasma Protein Binding (PPB) experiments
This was based on a previously described method, with the exception that NMRI mouse plasma was used here.8 In brief, a 96 well equilibrium dialysis apparatus was used to determine the free fraction in plasma for each compound (HT Dialysis LLC, Gales Ferry, CT). Membranes (12-14 kDA cut-off) were conditioned in deionised water for 60 min, followed by conditioning in 80:20 deionised water:ethanol for 20 min, and then rinsed in isotonic buffer before use. Female CD1 mouse plasma was removed from the freezer and allowed to thaw on the day of experiment. Thawed plasma was then centrifuged (Allegra X12-R, Beckman Coulter, USA), spiked with test compound (final concentration 10 μg/mL), and 150 μL aliquots (n=6 replicate determinations) loaded into the 96-well equilibrium dialysis plate. Dialysis against isotonic buffer (150 µL) was carried out for 5 h in a temperature controlled incubator at ~37 °C (Barworld scientific Ltd, UK) using an orbital microplate shaker at 100 revolutions/minute (Barworld Scientific Ltd, UK). At the end of the incubation period, 50 μL aliquots of plasma or buffer were transferred to micronic tubes (Micronic B.V., the Netherlands) and the composition in each tube balanced with control fluid (50 μL), such that the volume of buffer to plasma is the same. Sample extraction was performed by the addition of 200 µL of acetonitrile containing an appropriate internal standard. Samples were allowed to mix for 1 min and then centrifuged at 3000 rpm in 96-well blocks for 15 min (Allegra X12-R, Beckman Coulter, USA) after which 150 μL of supernatant was removed to 50 μL of water. All samples were analysed by UPLC-MS/MS on a Quattro Premier XE Mass Spectrometer (Waters Corporation, USA). The unbound fraction was determined as the ratio of the peak area in buffer to that in plasma. Experiments […]
Parallel Artificial Membrane Permeability Assay (PAMPA)
PAMPA was performed using a 96-well pre-coated BD Gentest™ PAMPA plate (BD Biosciences, U.K.). Each well was divided into two chambers; donor and acceptor, separated by a lipid-oil-lipid tri-layer constructed in a porous filter. The effective permeability, Pe, of the compound was measured at pH 7.4. Stock solutions (5 mM) of the compound were prepared in DMSO. The compound was then further diluted to 10 µM in phosphate buffered saline at pH 7.4. […]

[2] = Intrinsic clearance (Cli) in mouse liver microsomes; settings: mouse liver microsome
Excerpt: (§3) inhibition at top, C= EC50, D= slope, x= inhibitor concentration and y= % inhibition. […]
(§4) reach 100% of inhibition, B was fixed to 100 only when at least 50% of inhibition was reached.
(§5) Plasmodium falciparum late stage (IV-V) gametocyte high content imaging assay Plasmodium falciparum NF54-pfs16-LUC-GFP stage IV-V Gametocytes were produced as described previously.5 Compounds were solubilized in DMSO and serially diluted in three concentrations per log standard curves in DM SO. One µl of compound was subsequently diluted in 25µl of water (4% DMSO) and 5µl transferred into the base of 384 well PerkinElmer CellCarrier plates. Forty-five µl of stage IV-V gametocytes (10%P in 0.1%H) were added to the imaging plates which were in turn sealed with a gas permeable membrane and incubated at 37°C, 5% CO 2, 5% O2, 90% N2 and 60% humidity […]
(§6) Post incubation, 5µl of MitoTracker® Red CM -H2Xros (MTR) solution (0.66ug/ml) was added to all wells and the plates incubated for a further 16hours. The assay plates were then imaged and the number of viable gametocytes determined for test compounds plus 0.4%DMSO and 5µM Puromycin.
(§7) (0.4%DMSO) control values. Percent inhibition was plotted against log compound concentration using a 4 parameter log dose, non-linear regression analysis, with sigmoidal dose response (variable slope) curve fit using Prizm 4.0. IC50 values were obtained from this curve fit. The compound testing was performed in duplicate point within two separate experiments.
(§8) Plasmodium berghei ookinete development assay
(§9) Assay was performed as previously reported.6 Briefly blood containing P. berghei CTRPp-GFP gametocytes was rapidly harvested from infected mice and introduced to test compounds pre-diluted in ookinete medium (to induce gamete formation and support ookinete development) in 96-well plates. Plates were incubated in the dark at 21°C for 22 hr before GFP fluorescence intensity measured in a plate reader. % inhibition of ookinete formation was calculated with reference to the fluorescence intensity values of a positive control (20 µM cycloheximide) and a solvent-only negative control (DMSO). All assays were performed in triplicate independent experiments and EC50 values calculated in Graphpad Prism.
(§10) The aqueous solubility of the test compounds was measured using laser nephelometry, as described previously.7 Compounds were subject to serial dilution from 10 mg/mL to 0.5 mg/mL in DMSO. An aliquot was then mixed with MilliQ water to obtain an aqueous dilution plate with a final concentration range of 100 – 5 μg/mL, with a final DMSO concentration of 1.0%. Triplicate aliquots were transferred to a flat bottomed polystyrene plate which was immediately read on the NEPHELOstar (BMG Lab Technologies). The amount of laser scatter caused by insoluble particulates (relative nephelometry units, RNU) was plotted against compound concentration using a segmental regression fit, with the point of inflection being quoted as the compounds aqueous solubility (μg/mL; […]
(§11) Intrinsic Clearance (Cli) experiments
(§12) The procedure was carried out as reported previously.7 Test compound (0.5 µM) was incubated with female CD1 mouse, male sprague-dawley rat or pooled human mixed gender liver microsomes (Xenotech LLC TM; 0.5 mg/mL 50 mM potassium phosphate buffer, pH 7.4) and the reaction initiated […]
as §1, §2
XLfit (IDBS, UK) was used to calculate the exponential decay and consequently the rate constant (k) from the ratio of peak area of test compound to internal standard at each timepoint. The rate of […]

[3] = Intrinsic clearance (Cli) in rat liver microsomes; settings: rat liver microsome
Excerpt: as §3, §4, §5, §6, §7, §8, §9, §10, §11, §12
by the addition of excess NADPH (8 mg/mL 50 mM potassium phosphate buffer, pH 7.4). […]

Row | SMILES | fraction unbound at 5 h, 10 μg/mL [1] | MLM Cli [2] [mL min^–1 g^–1] | RLM Cli [3] [mL min^–1 g^–1]
1 | O=C(NCCN1CCCC1)c1cc(-c2ccc(CN3CCOCC3)cc2Cl)nc2ccc(F)cc12 [Compound 42, 2-(2-Chloro-4-(morpholinomethyl)phenyl)-6-fluoro-N-(2-(pyrrolidin-1-yl)ethyl)quinoline-4-carboxamide] | 0.44 | 0.5 | 
2 | O=C(NCCN1CCCC1)c1cc(NCCCCN2CCOCC2)nc2ccc(Cl)cc12 [Compound 27, 6-Chloro-2-((4-morpholinobutyl)amino)-N-(2-(pyrrolidin-1-yl)ethyl)quinoline-4-carboxamide] | 0.51 | 2.0 | 
3 | O=C(NCCN1CCCC1)c1cc(-c2ccc(S(=O)(=O)N3CCOCC3)cc2)nc2ccc(F)cc12 [Compound 38, 6-Fluoro-2-(4-(morpholinosulfonyl)phenyl)-N-(2-(pyrrolidin-1-yl)ethyl)quinoline-4-carboxamide] | 0.25 | 1.9 | 
4 | O=C(NCCN1CCCC1)c1cc(-c2ccc(CN3CCOCC3)cc2F)nc2ccc(F)cc12 [Compound 41] |  | <0.5 | <0.5
5 | O=C(NCCN1CCCC1)c1cc(NCCCN2CCOCC2)nc2ccc(F)cc12 [Compound 25, 6-Fluoro-2-((3-morpholinopropyl)amino)-N-(2-(pyrrolidin-1-yl)ethyl)quinoline-4-carboxamide] | 0.41 | 0.8 | <0.5
6 | O=C(NCCN1CCCC1)c1cc(NCCC2CCOCC2)nc2ccc(Cl)cc12 [Compound 30, 6-Chloro-N-(2-(pyrrolidin-1-yl)ethyl)-2-((2-(tetrahydro-2H-pyran-4-yl)ethyl)amino)quinoline-4-carboxamide] | 0.23 | 2 | 0.8
